Tests used:
C57B16 mice = test: Water maze spatial learning; format: in vivo; conditions: i.p. once daily for 7 days; FIG. 6
Experimental: The test apparatus consists of a large circular pool (1 m diameter, 80 cm high, temperature 26° C.) with a platform (11 cm diameter) submerged 1.5 cm below the surface. Both the pool and the platform were constructed of black polyvinyl plastic, which offered no intra-maze cues. The experimental room contained several extra-maze visual cues. During training the platform was hidden in the same quadrant 30 cm away from the edge of the maze. There were five trials, each of them beginning with the rat facing the wall of the maze in one of three different locations. The time taken for the rat to find the platform within a 90 s period was recorded. Probe trials where the platform was removed from the maze and the time the animal spent in the target quadrant were also performed. […]
Finally, drugs inducing neurobehavioural profile are evaluated in the water maze spatial learning paradigm, a robust task of information acquisition and consolidation—a measure of pro-cognitive action. […]
The influence of Captodiamine on open-field behaviour (FIG. 3), novel object recognition (FIG. 8), forced swim test (FIGS. 10A and 10B) and water maze spatial learning (FIG. 6). […] Values were analysed using a two way ANOVA and Student t-test and those with a p values<0.05 were accepted as significant and where appropriate are indicated with an asterisk.

rat pyloric muscle = test: Electrical field stimulation (EFS)-mediated relaxation of isolated pyloric muscle; conditions: 25 μM Captodiamine; 10 min treatment, 10 μM-100 μM tested
Experimental: Inhibition of pyloric relaxation by administration of captodiamine was performed as described in Kashyap P., Micci M., Pasricha S., Pasricha P., The D2/D3 Agonist PD 128907 (R-(+)-trans-3,4a,10b-Tetrahydro-4-Propyl-2H,5H-[1]Benzopyrano[4,3-b]-1,4-Oxazin-9-ol) Inhibits Stimulated Pyloric Relaxation and Spontaneous Gastric Emptying, 2007, Digestive Diseases and Sciences.
Male Wistar rats were killed by cervical dislocation and decapitation. The stomach was removed and placed in oxygenated Krebs buffer (118 mM NaCl, 4.7 mM KCl, 1.2 mM KH2PO4, 1.2 mM MgSO4, 4.2 mM NaHCO3, 2 mM CaCl2, 10 mM glucose, 200 μM sulphinpyrazone and 10 mM Hepes, pH 7.4). […] The tissue was cut longitudinally along the mesenteric border and trimmed to 2 mm in width. At one end, the tissue was mounted onto an L-shaped electrode and placed into a 25 ml chamber containing Krebs buffer, maintained at 37° C. and continuously bubbled with 95% O2/5% CO2. The other end of the tissue was attached to an isometric force transducer using string sutured to tissue. Tension was monitored, recorded and analyzed by a digital recording device (PowerLab and Chart 5, ADInstruments). […] Spontaneous contraction of the pyloric strips were observed and recorded following the equilibration phase. […] The weight of the tissue was measured at the end of each session. […]

CCCCSc1ccc(C(SCCN(C)C)c2ccccc2)cc1 (centres unmarked) [Captodiamine, 2-[(4-butylsulfanylphenyl)-phenyl-methyl]sulfanyl-N,N-dimethyl-ethanamin]
water maze spatial learning task performance (C57B16 mice): significant pro-cognitive action
effect on EFS-mediated relaxation of the rat pyloric muscle (rat pyloric muscle): attenuation of the EFS-mediatated relaxation

Reference: US8461389B2, “Psycho-pharmaceuticals” (University College Dublin, National University of Ireland, …, priority 2008, dated 2013)
